Columns and labels:
[1] = Light fastness test (retention of dye after 2 hours of high-pressure mercury lamp irradiation); type: physicochemical; settings: 1 mg in 250 mL, 2 hours irradiation
Description: The light fastness of each dye was examined in the following manner. One milligram of each dye was dissolved in 250 mL of each of n-decane, tetradecane, Isopar M, and Isopar G, and the solution was irradiated with light for 2 hours using photoreaction apparatus UVL-400HA (400-W high-pressure mercury lamp), manufactured by Riko-Kagaku Sangyo Co., Ltd. During the irradiation, the vessel was cooled with a coolant to keep the internal temperature at 10-30° C. The retention of the dye was determined through the following calculation to evaluate the light fastness. Retention of dye=(absorbance at absorption-maximum wavelength after irradiation)/(absorbance at absorption-maximum wavelength before irradiation)

[2] = Solubility test in low-polarity solvents (saturated solution, λmax, solubility, εC); type: physicochemical; settings: for Solubility: saturated solution
Description: The solubility of each dye in n-decane, tetradecane, Isopar M, Isopar G, and decalin was examined in the following manner. Each dye was added to each solvent until a dissolution residue came to remain, and this mixture was subjected to a 30-minute ultrasonic treatment at 30 degrees. The resultant mixture was allowed to stand at 5° C. for 24 hours and then subjected to centrifugal filtration (centrifugal force, 5,200×g) with a 0.1-μm filter using a microcentrifuge. The saturated solution obtained was diluted to an adequate concentration, and the solubility of each dye was calculated from a relationship with an extinction coefficient determined beforehand. Furthermore, the value of the product of the molar extinction coefficient ε (Lmol^−1cm^−1) and the concentration C (molL^−1) of the saturated solution, εC, was determined.
Sudan Black B (manufactured by Tokyo Kasei Kogyo Co., Ltd.), which is a commercial oil-soluble black dye, was added to n-decane until a dissolution residue came to remain, and this mixture was subjected to a 30-minute ultrasonic treatment at 30 degrees. The resultant mixture was allowed to stand at 5° C. for 24 hours and then subjected to centrifugal filtration (centrifugal force, 5,200×g) with a 0.1-μm filter using a microcentrifuge. The saturated n-decane solution obtained was diluted to an adequate concentration, and the solubility of the dye was calculated from a relationship with an extinction coefficient determined beforehand.

[3] = n-decane, 400-W high-pressure mercury lamp
[4] = n-decane, stood at 5° C. for 24 hours, 0.1-μm filter

| Light fastness: retention of dye [1, 3] [%] | εC (molar extinction coefficient × concentration of saturated solution) ([2]; n-decane) | λmax (absorption-maximum wavelength) ([2]; n-decane solution) [nm] | Solubility [2, 4] | εC ([2]; Isopar G) | λmax (absorption-maximum wavelength) ([2]; Isopar G solution) [nm] | Solubility ([2]; Isopar G) | εC ([2]; Isopar M) | λmax (absorption-maximum wavelength) ([2]; Isopar M solution) [nm] | Solubility ([2]; Isopar M) | εC ([2]; tetradecane) | λmax (absorption-maximum wavelength) ([2]; tetradecane solution) [nm] | Solubility ([2]; tetradecane) | SMILES | further results |
| --- | --- | --- | --- | --- | --- | --- | --- | --- | --- | --- | --- | --- | --- | --- |
| 92 | 1300 cm⁻¹ | 537 | 2.4% |  |  |  |  |  |  |  |  |  | CCCCC(CC)CN(CC(CC)CCCC)c1ccc(N=Nc2sc(C(=O)OCC)c(C)c2C(=O)OCC)c(NC(C)=O)c1 (centres unmarked) [Dye 3] |  |
|  | 2800 cm⁻¹ | 527 | 4.8% |  |  |  |  |  |  |  |  |  | CCCCC(CC)CN(CC(CC)CCCC)c1ccc(/N=N/c2snc(C(C)C)c2C#N)c(C)c1 (centres unmarked) [Dye 14] |  |
|  | 4100 cm⁻¹ | 543 | 5.7% |  |  |  |  |  |  |  |  |  | CCCCc1nsc(/N=N/c2ccc(N(CC(C)C)CC(C)C)cc2NC(C)=O)c1C#N [Dye 12] |  |
|  | 8300 cm⁻¹ | 535 | 9.7% |  |  |  |  |  |  |  |  |  | CCCCC(CC)CN(CC(CC)CCCC)c1ccc(/N=N/c2snc(C)c2C#N)c(C(C)C)c1 (centres unmarked) [Dye 15] |  |
|  | 11000 cm⁻¹ | 543 | 13% | 11500 cm⁻¹ | 543 | 13.3% | 8900 cm⁻¹ | 544 | 9.8% | 7400 cm⁻¹ | 544 | 8.5% | CCCCC(CC)CN(CC(CC)CCCC)c1ccc(/N=N/c2snc(C)c2C#N)c(NC(=O)CC)c1 (centres unmarked) [Dye 9] | εC ([2]; decalin): 8500 cm⁻¹; λmax (absorption-maximum wavelength) ([2]; decalin solution): 547 nm; Solubility ([2]; decalin): 9.1% |
| 76 | ≦10 cm^−1 |  | ≦0.01% | ≦10 cm^−1 |  | ≦0.01% | ≦10 cm^−1 |  | ≦0.01% | ≦10 cm^−1 |  | ≦0.01% | C=Cn1c(N=Nc2ccc(N(CCCC)CCCC)cc2NC(C)=O)nc(C#N)c1C#N [Comparative dye 3, reference compound] | εC ([2]; decalin): ≦10 cm^−1; λmax (absorption-maximum wavelength) ([2]; decalin solution): 520 nm; Solubility ([2]; decalin): ≦0.01% |
| 97 | 1000 cm⁻¹ | 538 | 1.1% |  |  |  |  |  |  |  |  |  | CCc1nsc(N=Nc2ccc(N(CC(C)C)CC(C)C)cc2NC(C)=O)c1C#N [Dye 1] |  |
|  | 1300 cm⁻¹ | 523 | 2.1% |  |  |  |  |  |  |  |  |  | CCCCCCCCN(CC(CC)CCCC)c1ccc(/N=N/c2snc(C)c2C#N)c(C)c1 (centres unmarked) [Dye 5] |  |
| 96 | 5700 cm⁻¹ | 527 | 6.6% | 4900 cm⁻¹ | 526 | 7.4% | 6000 cm⁻¹ | 530 | 8.51% | 5200 cm⁻¹ | 530 | 6.8% | CCCCC(CC)CN(CC(CC)CCCC)c1ccc(/N=N/c2snc(CC)c2C#N)c(C)c1 (centres unmarked) [Dye 4] | Light fastness: retention of dye ([1]; Isopar G): 98%; Light fastness: retention of dye ([1]; Isopar M): 95%; Light fastness: retention of dye ([1]; tetradecane): 82%; εC ([2]; decalin): 5200 cm⁻¹; λmax (absorption-maximum wavelength) ([2]; decalin solution): 534 nm; Solubility ([2]; decalin): 6.5% |
| 99 | 17000 cm⁻¹ | 543 | 20% | 18600 cm⁻¹ | 542 | 20% | 18600 cm⁻¹ | 542 | 20% | 16700 cm⁻¹ | 544 | 19% | CCCCC(CC)CN(CC(CC)CCCC)c1ccc(N=Nc2snc(CC)c2C#N)c(NC(C)=O)c1 (centres unmarked) [Dye 10] | εC ([2]; decalin): 6600 cm⁻¹; λmax (absorption-maximum wavelength) ([2]; decalin solution): 546 nm; Solubility ([2]; decalin): 6.7% |
|  | 4300 cm⁻¹ | 535 | 4.2% |  |  |  |  |  |  |  |  |  | CCCCC(CC)CN(CC)c1ccc(/N=N/c2snc(CC)c2C#N)c(NC(C)=O)c1 (centres unmarked) [Dye 11] |  |
|  | 3200 cm⁻¹ | 504 | 8.4% |  |  |  |  |  |  |  |  |  | CCCCC(CC)CN(CC(CC)CCCC)c1ccc(/N=N/c2sc(C(=O)OCC)c(C)c2C(=O)OCC)c(C)c1 (centres unmarked) [Dye 6] |  |
| 98 | 5700 cm⁻¹ | 536 | 10.3% | 6000 cm⁻¹ | 535 | 10% | 6300 cm⁻¹ | 536 | 10% | 5400 cm⁻¹ | 538 | 9.7% | CCCCC(CC)CN(CC(CC)CCCC)c1ccc(/N=N/c2sc(C(=O)OCC)c(C)c2C(=O)OCC)c(NC(=O)CC)c1 (centres unmarked) [Dye 7] | Light fastness: retention of dye ([1]; Isopar G): 98%; Light fastness: retention of dye ([1]; Isopar M): 87%; Light fastness: retention of dye ([1]; tetradecane): 81% |
|  | 6500 cm⁻¹ | 533 | 10% | 3600 cm⁻¹ | 533 | 5.17% | 2500 cm⁻¹ | 534 | 3.4% | 2800 cm⁻¹ | 534 | 3.9% | CCCCC(CC)CN(CC(CC)CCCC)c1ccc(/N=N/c2snc(C)c2C#N)c(CC)c1 (centres unmarked) [Dye 8] |  |
|  | 2300 cm⁻¹ | 563 | 3.7% |  |  |  |  |  |  |  |  |  | CCCCC(CC)CN(CC(CC)CCCC)c1cc(C)c(/N=N/c2snc(C)c2C#N)cc1OC (centres unmarked) [Dye 16] |  |
|  | 12000 cm⁻¹ | 523 | 9.2% |  |  |  |  |  |  |  |  |  | CCCCC(CC)CN(CC(CC)CCCC)c1ccc(/N=N/c2snc(C)c2C#N)cc1 (centres unmarked) [Dye 17] |  |
|  | 1000 cm⁻¹ | 498 | 1.7% |  |  |  |  |  |  |  |  |  | CCOC(=O)c1sc(/N=N/c2ccc(N(CC(C)C)CC(C)C)cc2C)c(C(=O)OCC)c1C [Dye 18] |  |
|  | 6000 cm⁻¹ | 546 | 9.7% |  |  |  |  |  |  |  |  |  | CCCCC(CC)CN(CC(CC)CCCC)c1ccc(/N=N/c2sc(C(=O)OCC)c(C)c2C#N)c(CC)c1 (centres unmarked) [Dye 20] |  |
|  | 3700 cm⁻¹ | 527 | 5.9% |  |  |  |  |  |  |  |  |  | CCCCc1nsc(/N=N/c2ccc(N(CC(CC)CCCC)CC(CC)CCCC)cc2C)c1C#N (centres unmarked) [Dye 13] |  |
| 92 | 2000 cm⁻¹ | 652 | 6.6% | 1200 cm⁻¹ | 649 | 4.3% | 1000 cm⁻¹ | 650 | 3.6% | 1600 cm⁻¹ | 651 | 5.7% | CCCCC(CC)CNc1ccc(NCC(CC)CCCC)c2c1C(=O)c1ccccc1C2=O (centres unmarked) [Comparative dye 2, reference compound] | Light fastness: retention of dye ([1]; Isopar G): 85%; Light fastness: retention of dye ([1]; Isopar M): 90%; Light fastness: retention of dye ([1]; tetradecane): 99%; εC ([2]; decalin): 3400 cm⁻¹; λmax (absorption-maximum wavelength) ([2]; decalin solution): 645 nm; Solubility ([2]; decalin): 9.98%; εC (in words) ([2]; each of the low-polarity solvents): small value; λmax (in words) ([2]; low-polarity solvents): large value |

From patent US8747537B2, “Ink containing heterocyclic azo dye, and dye for use in said ink” (Mitsubishi Chemical Corporation, priority 2010, dated 2014)
